From ChEMBL document CHEMBL2177005, “Mineralocorticoid receptor antagonists for the treatment of hypertension and diabetic nephropathy” (J Med Chem, 2012)

Tests used:
[1] = target: T1, Progesterone receptor (Homo sapiens, UniProt P06401); assay: Antagonist activity at progesterone receptor; format: functional
T1 sequence (P06401 whole entry): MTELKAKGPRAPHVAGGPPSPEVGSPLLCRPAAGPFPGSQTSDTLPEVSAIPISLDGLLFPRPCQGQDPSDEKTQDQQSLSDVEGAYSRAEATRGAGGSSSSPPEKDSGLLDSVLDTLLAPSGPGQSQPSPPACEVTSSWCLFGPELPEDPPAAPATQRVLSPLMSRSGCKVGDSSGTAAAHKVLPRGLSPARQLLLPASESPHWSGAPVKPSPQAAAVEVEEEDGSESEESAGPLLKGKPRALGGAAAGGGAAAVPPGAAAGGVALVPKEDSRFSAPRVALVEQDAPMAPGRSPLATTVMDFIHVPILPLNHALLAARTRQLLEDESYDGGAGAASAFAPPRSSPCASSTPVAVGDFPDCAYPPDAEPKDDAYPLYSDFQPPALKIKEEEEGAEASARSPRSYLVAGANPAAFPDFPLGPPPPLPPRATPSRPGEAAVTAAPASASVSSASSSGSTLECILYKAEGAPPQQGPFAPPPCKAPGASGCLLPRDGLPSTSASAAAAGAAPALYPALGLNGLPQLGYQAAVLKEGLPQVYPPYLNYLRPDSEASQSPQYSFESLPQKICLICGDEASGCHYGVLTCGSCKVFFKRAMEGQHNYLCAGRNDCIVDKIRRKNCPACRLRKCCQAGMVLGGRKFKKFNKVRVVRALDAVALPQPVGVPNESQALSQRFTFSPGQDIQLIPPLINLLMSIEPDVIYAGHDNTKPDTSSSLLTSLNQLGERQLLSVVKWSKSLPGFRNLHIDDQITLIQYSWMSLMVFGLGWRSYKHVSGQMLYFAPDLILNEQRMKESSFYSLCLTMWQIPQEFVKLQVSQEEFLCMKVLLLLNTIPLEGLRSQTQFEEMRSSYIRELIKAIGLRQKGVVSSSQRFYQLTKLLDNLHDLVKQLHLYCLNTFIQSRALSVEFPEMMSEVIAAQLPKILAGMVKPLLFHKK

[2] = target: T2, Glucocorticoid receptor (Homo sapiens, UniProt P04150); assay: Displacement of [3H]dexamethasone from human glucocorticoid receptor overexpressed in HEK293 cells by microbeta counting assay; format: cell-based
T2 sequence (P04150 whole entry): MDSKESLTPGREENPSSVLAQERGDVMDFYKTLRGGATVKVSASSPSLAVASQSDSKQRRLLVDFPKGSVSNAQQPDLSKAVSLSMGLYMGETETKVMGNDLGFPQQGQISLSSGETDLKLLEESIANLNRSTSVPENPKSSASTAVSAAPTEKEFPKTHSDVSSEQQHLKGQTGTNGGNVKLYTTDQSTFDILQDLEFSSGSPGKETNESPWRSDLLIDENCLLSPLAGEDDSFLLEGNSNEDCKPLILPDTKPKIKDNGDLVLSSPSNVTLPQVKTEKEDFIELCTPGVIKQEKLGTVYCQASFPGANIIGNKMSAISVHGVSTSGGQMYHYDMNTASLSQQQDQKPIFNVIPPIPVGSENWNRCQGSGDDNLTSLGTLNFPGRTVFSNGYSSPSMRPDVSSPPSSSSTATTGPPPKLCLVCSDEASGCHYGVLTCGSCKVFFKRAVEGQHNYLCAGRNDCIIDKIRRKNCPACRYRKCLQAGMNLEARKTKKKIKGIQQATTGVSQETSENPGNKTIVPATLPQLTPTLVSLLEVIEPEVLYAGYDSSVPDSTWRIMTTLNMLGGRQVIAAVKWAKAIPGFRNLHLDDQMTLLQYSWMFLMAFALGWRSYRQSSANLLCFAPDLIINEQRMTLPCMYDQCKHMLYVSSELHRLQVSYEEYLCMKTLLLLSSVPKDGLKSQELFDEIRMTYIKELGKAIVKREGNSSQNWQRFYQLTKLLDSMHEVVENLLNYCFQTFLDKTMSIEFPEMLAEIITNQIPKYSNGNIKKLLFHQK

[3] = target: T3, Mineralocorticoid receptor (Homo sapiens, UniProt P08235); assay: Displacement of [3H]aldosterone from human mineralocorticoid receptor overexpressed in HEK293 cells by microbeta counting assay; format: cell-based
T3 sequence (P08235 whole entry): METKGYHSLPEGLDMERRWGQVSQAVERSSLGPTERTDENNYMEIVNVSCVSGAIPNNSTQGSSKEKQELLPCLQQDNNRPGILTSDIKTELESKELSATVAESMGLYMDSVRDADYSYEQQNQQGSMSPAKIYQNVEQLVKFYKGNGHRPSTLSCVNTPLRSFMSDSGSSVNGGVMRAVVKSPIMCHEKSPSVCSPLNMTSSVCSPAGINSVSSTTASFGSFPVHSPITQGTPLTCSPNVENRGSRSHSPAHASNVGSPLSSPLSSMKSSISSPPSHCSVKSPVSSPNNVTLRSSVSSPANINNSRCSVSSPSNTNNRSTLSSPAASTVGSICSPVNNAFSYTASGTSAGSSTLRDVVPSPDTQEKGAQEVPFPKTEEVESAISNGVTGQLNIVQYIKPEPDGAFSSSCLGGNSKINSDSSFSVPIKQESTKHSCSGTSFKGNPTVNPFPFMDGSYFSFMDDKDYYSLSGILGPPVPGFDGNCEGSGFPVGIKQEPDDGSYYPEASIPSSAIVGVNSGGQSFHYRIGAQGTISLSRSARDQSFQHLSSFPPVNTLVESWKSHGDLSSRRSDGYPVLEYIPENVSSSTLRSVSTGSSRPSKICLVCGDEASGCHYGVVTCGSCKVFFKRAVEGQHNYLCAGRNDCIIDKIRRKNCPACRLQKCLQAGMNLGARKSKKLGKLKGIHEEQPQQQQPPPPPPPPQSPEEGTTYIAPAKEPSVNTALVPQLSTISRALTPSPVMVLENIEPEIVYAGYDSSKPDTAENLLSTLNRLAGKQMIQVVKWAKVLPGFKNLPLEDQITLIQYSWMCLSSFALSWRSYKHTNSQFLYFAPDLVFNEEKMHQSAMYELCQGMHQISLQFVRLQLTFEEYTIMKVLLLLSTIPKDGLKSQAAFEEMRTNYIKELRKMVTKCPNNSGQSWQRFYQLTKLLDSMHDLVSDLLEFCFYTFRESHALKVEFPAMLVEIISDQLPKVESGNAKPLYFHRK

[4] = target: T1, Progesterone receptor; assay: Displacement of [3H]methyltrienolone from human progesterone receptor overexpressed in HEK293 cells by microbeta counting assay; format: cell-based
[5] = target: T4, Androgen receptor (Homo sapiens, UniProt P10275); assay: Displacement of [3H]-methyltrienolone from human androgen receptor overexpressed in HEK293 cells by microbeta counting assay; format: cell-based
T4 sequence (P10275 whole entry): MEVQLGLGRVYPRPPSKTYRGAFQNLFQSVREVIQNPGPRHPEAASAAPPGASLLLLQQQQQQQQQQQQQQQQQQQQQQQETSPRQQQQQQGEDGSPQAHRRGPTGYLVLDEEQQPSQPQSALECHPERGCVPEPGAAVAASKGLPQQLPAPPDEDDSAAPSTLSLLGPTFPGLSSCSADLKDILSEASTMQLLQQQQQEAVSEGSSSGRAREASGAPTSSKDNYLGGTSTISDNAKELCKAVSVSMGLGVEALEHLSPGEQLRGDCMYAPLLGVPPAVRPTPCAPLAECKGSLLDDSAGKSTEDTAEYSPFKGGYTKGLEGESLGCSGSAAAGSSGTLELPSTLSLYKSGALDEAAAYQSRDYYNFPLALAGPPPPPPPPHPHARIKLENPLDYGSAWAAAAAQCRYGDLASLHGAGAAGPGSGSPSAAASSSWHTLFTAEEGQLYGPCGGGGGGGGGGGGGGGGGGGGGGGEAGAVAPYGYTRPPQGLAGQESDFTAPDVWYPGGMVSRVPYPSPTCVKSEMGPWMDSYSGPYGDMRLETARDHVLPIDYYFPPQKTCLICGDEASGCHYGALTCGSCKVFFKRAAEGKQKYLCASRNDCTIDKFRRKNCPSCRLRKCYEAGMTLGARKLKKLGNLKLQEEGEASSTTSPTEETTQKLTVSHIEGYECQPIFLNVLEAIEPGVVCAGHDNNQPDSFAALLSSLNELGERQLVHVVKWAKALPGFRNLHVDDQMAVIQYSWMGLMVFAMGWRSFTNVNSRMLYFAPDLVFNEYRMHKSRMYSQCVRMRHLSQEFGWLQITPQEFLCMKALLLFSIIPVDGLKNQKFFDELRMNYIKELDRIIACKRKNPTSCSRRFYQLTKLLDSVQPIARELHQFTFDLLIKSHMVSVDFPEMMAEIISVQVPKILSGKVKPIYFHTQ

[6] = target: T2, Glucocorticoid receptor; assay: Antagonist activity against glucocorticoid receptor expressed in CHOK1 cells after 10 to 30 mins by luciferase reporter gene assay; format: functional, cell-based, CHO-K1
[7] = target: T3, Mineralocorticoid receptor; assay: Antagonist activity against human mineralocorticoid receptor expressed in CHOK1 cells after 10 to 30 mins by luciferase reporter gene assay; format: functional, cell-based, CHO-K1
[8] = target: T1, Progesterone receptor; assay: Antagonist activity against progesterone receptor expressed in CHOK1 cells after 10 to 30 mins by luciferase reporter gene assay; format: functional, cell-based, CHO-K1
[9] = target: T4, Androgen receptor; assay: Antagonist activity against androgen receptor expressed in CHOK1 cells after 10 to 30 mins by luciferase reporter gene assay; format: functional, cell-based, CHO-K1
[10] = target: T3, Mineralocorticoid receptor; assay: Antagonist activity at mineralocorticoid receptor expressed in african green monkey COS7 cells after 18 hrs by luciferase reporter gene assay; format: functional, cell-based, COS-7
[11] = target: T5, Mineralocorticoid receptor (Rattus norvegicus, UniProt P22199); assay: Displacement of [3H]-aldosterone from rat mineralocorticoid receptor after 18 hrs by liquid scintillation counter analysis
T5 sequence (P22199 whole entry): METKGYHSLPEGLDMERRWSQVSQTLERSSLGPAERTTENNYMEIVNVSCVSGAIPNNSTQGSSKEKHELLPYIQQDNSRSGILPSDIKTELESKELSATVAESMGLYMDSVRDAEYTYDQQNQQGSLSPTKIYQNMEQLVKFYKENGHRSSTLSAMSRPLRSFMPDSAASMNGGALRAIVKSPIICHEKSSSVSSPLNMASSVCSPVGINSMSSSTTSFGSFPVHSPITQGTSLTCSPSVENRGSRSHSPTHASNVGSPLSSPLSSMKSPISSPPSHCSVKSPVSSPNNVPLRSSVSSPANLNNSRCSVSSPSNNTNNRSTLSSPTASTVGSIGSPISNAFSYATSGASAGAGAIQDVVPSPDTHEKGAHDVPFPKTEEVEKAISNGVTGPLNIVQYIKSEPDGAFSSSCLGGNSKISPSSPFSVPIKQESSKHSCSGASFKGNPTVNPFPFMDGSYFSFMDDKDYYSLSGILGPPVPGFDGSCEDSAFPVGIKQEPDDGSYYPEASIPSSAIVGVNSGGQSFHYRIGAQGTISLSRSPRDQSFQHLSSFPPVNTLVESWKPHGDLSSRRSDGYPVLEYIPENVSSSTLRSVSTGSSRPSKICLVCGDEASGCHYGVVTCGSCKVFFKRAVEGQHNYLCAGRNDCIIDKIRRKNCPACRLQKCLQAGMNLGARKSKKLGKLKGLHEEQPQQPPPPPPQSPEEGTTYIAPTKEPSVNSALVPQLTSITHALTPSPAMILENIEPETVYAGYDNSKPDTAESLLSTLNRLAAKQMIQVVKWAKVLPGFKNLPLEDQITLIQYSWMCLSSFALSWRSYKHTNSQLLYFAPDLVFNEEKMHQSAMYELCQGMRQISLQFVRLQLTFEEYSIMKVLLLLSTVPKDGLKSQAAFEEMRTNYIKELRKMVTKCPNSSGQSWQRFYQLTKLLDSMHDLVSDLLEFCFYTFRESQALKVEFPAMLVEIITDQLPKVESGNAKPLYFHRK

[12] = target: T5, Mineralocorticoid receptor; assay: Displacement of [3H]Aldosterone C from rat mineralocorticoid receptor by liquid scintillation counter analysis
[13] = target: T3, Mineralocorticoid receptor; assay: Antagonist activity at mineralocorticoid receptor; format: functional
[14] = Protein binding in plasma; format: ADME, cell-free; conditions: read-out: PPB (converted)
[15] = Binding affinity to Ca2+ channel L type by radioligand binding assay
[16] = target: T5, Mineralocorticoid receptor; assay: Binding affinity to rat mineralocorticoid receptor

## O=C1COc2ccc(C3=Nn4cnnc4SC3c3ccccc3)cc2N1 (configuration not stated)
[1]
  IC50: > 10 µM

## O=c1[nH]c2cc(/C=C3\c4ccccc4COc4cc(F)ccc43)ccc2n1[C@H]1C[C@H]2COCCN2C1
[2]
  Ki: 0.669 µM
[3]
  Ki: 0.0004 µM
[4]
  Ki: 0.478 µM
[5]
  Ki: 1.17 µM

## CCOC(=O)C1=C(C)NC(C)=C(C(C)=O)[C@H]1c1cccc2c(=O)cc(C)oc12
[6]
  IC50: 5.47 µM
[7]
  IC50: 0.028 µM
[8]
  IC50: 9.02 µM
[9]
  IC50: 4.44 µM

## CC1(C)OC(=S)Nc2ccc(NS(=O)(=O)c3cccs3)cc21
[10]
  IC50: 0.13 µM
[11]
  IC50: 0.021 µM

## COc1cc(C(=O)Nc2ccc(-c3ccccc3OC(F)(F)F)c(CCN(C)C3CC3)c2)ccc1S(N)(=O)=O
[12]
  IC50: 0.022 µM

## Cc1c(C(=O)Nc2ccc(S(C)(=O)=O)cc2)cn(CCO)c1-c1ccccc1C(F)(F)F
[13]
  IC50: 0.0024 µM

## COC(=O)[C@@H]1CC2=CC(=O)CC[C@]2(C)[C@@]23O[C@@H]2C[C@@]2(C)[C@@H](CC[C@@]24CCC(=O)O4)[C@H]13 [EPLERENONE]
[14]
  fraction unbound: 0.1

## CCOc1ncc(C)c2c1[C@H](c1ccc(C#N)cc1OC)C(C(N)=O)=C(C)N2 [FINERENONE]
[15]
  IC50: > 1 µM

## CC1(C)Oc2cc(NS(C)(=O)=O)ccc2N(c2ccc(F)cc2)C1=O [MT-3995]
[16]
  IC50: < 0.5 µM

## CC(=O)S[C@@H]1CC2=CC(=O)CC[C@]2(C)[C@H]2CC[C@@]3(C)[C@@H](CC[C@@]34CCC(=O)O4)[C@H]12 [SPIRONOLACTONE]
[14]
  fraction unbound: 0.51
